The text below walks through data of PMC6052462, “Oxidation resistance 1 is a novel senolytic target” (Aging Cell, 2018).

In this assay the target is T1, OXR1 (endogenous, senescent WI38 cells) (Homo sapiens, UniProt Q8N573).
T1 construct: native protein of human WI38 fibroblasts (senescent)
T1 sequence (Q8N573 1-874): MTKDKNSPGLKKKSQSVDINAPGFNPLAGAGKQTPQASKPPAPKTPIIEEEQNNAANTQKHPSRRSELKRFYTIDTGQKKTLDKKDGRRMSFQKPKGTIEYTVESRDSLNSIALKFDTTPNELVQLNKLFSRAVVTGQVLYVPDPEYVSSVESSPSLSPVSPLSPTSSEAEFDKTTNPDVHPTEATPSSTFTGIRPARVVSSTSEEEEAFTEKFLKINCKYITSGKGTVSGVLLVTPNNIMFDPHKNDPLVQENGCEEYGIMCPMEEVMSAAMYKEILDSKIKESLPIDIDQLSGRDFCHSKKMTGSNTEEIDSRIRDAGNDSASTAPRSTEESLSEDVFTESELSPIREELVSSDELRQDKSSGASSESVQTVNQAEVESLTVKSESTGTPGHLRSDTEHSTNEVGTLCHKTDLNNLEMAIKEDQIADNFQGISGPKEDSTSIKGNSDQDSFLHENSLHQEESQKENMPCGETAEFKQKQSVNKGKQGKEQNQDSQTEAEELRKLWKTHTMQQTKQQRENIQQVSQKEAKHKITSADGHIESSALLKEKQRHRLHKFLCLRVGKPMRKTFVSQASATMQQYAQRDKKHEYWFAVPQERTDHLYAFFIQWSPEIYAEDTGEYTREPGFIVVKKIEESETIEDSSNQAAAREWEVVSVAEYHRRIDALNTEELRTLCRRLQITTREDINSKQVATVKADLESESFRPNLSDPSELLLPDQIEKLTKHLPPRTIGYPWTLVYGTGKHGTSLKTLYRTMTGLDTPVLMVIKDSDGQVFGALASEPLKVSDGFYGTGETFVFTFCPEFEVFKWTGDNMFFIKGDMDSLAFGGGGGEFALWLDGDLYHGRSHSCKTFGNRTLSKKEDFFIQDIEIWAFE
In words: click-chemistry pull-down from live cells, LC-MS/MS. It is filed as cell-based. The conditions noted are these: labelled compound; 5 µM, 5 h; covalent.

The structures appear in SMILES notation.

In the case of `C#CCCOc1c(OC)cc(/C=C/C(=O)N2CCC=CC2=O)cc1OC` [PL probe, alkyne-labeled piperlongumine], the “click-chemistry pull-down from live cells, LC-MS/MS” value is “OXR1 was on the top of the list of the PL‐binding proteins in SCs”.
